# Target: hBPGM (Homo sapiens (Human), UniProt P07738)
# Experiment: BPGM Synthase Assay
# Type: biochemical
# Conditions: Table 6 additional results; read-out: huBPGM: synthase Enzyme IC50
# Description: Example B1. BPGM Synthase Assay
# The following materials were used in this assay: deionized water; Bisphosphoglycerate mutase (BPGM; Standard Buffer: 50 mM Tris, 0.01% Tween 20, pH 7.4); BPGM Reaction Buffer (50 mM Tris, 0.01% Tween 20, 3.23 mM KH2PO4, pH 7.4); dithiothreitol (DTT; Stock solution: 100 mM in Standard Buffer); 384-Well Black Assay Plate (Corning, P/N 3575); DMSO; BPGM Stock Solution (500 nM in BPGM Standard Buffer); Glyceraldehyde 3-phosphate dehydrogenase (GAPDH; Stock Solution: 40 U/mL in 20 mM Tris-HCL Buffer with 20% Glycerol, 1 mM EDTA, 1 mM DTT); Glyceraldehyde 3-phosphate (GAP; Stock Solution: 20 mM in BPGM Standard Buffer); 3-PG Stock Solution (500 μM in BPGM Standard Buffer); Nicotinamide adenine dinucleotide (NAD; Stock Solution: 50 mM in BPGM Standard Buffer); Koningic Acid (1 mM Stock in DMSO); Resazurin Stock Solution (10 mM in DMSO); Diaphorase Stock Solution (40 U/mL in BPGM Standard Buffer); DTT Reaction Buffer (1 mM DTT in BPGM Reaction Buffer); Enzyme Solution (5 nM BPGM, 0.4 U/mL GAPDH in DTT Reaction Buffer); GAPDH Solution (0.4 U/mL GAPDH in DTT Reaction Buffer); Substrate Solution (2 mM NAD, 20 μM 3PG, 800 μM GAP in DTT Reaction Buffer); and Resazurin Solution (5 U/mL Diaphorase, 500 μM Resazurin in BPGM Standard Buffer).
# To the assay plate was added Enzyme Solution (20 uL) to columns 2-22 and 24 of the assay plate. To columns 1 and 23 was added GAPDH Solution (20 uL). A separate compound plate was prepared at the desired concentrations and all wells were normalized with 5% DMSO. The compound plate was incubated for 30 minutes at RT. Next, the substrate solution (20 μL) was dispensed to all reaction wells and the plate was incubated for 60 minutes at RT. Koningic acid (1 μL) was added and the plate was incubated for 10 minutes at RT. During this time period, the NADH fluorescence was read at ex: 360/em: 460. Next, Resazurin Solution (10 μL) was added to all reaction wells and the plate was incubated for 30 minutes at RT. The resorufin fluorescence was then read at ex:544/em:590.
# Chain of hBPGM (P07738 whole entry, looked up): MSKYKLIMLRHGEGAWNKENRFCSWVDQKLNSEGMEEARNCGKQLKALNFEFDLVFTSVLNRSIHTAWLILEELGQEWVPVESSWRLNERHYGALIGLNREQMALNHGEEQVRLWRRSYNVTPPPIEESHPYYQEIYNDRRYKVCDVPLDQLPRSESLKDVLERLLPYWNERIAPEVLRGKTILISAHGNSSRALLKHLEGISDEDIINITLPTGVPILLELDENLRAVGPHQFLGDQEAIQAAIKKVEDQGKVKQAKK
row,SMILES,IC50 [µM]
1,Cc1nc(Cn2cccc(C#N)c2=O)sc1-c1cccc(-c2ccc(C(=O)O)c(O)c2)c1 [Example 100],0.56
2,Cc1nc(COc2ncccn2)sc1-c1cccc(-c2c[nH]c(C(=O)O)c2)n1 [Example 76],3.5
3,Cc1nc(CNC(=O)c2ccccn2)sc1-c1csc(-c2cc(O)c(C(=O)O)cc2F)n1 [Example 200],0.073
4,COC(=O)NCc1nc(C)c(-c2csc(-c3ccc(C(=O)O)c(O)c3)c2)s1 [Example 166],0.25
5,Cc1nc(Cc2ccn(C)n2)sc1-c1csc(-c2cc(O)c(C(=O)O)cc2F)n1 [Example 160],0.065
6,Cc1nc(C)c(-c2csc(-c3ccc(C(=O)O)c(O)c3F)n2)s1 [Example 240],2.3
7,Cc1nc(COc2cccnn2)sc1-c1csc(-c2cc(O)c(C(=O)O)cc2F)n1 [Example 131],0.042
8,Cc1nc(CNc2ccn(C)n2)sc1-c1csc(-c2cc(O)c(C(=O)O)cc2F)n1 [Example 221],0.09
9,Cc1nc(C)c(-c2cc(-c3ccc(C(=O)O)cc3)ccc2C)s1 [Example 307],> 250
10,Cc1nc(Cc2cccc(C(F)(F)F)c2)sc1-c1cccc(-c2ccc(C(=O)O)c(O)c2)c1 [Example 317],3
11,Cc1nc(C)c(-c2cc(-c3ccc(C(=O)O)cc3)ccc2O)s1 [Example 301],> 250
12,Cc1nc(C)c(-c2csc(-c3ccc(C(=O)O)c(O)c3)n2)s1 [Example 315],1.4
13,Cc1ccc(C#N)c(OCCn2cc(-c3cccc(-c4ccc(C(=O)O)c(O)c4)c3)c(C)n2)n1 [Example 330],6.6
14,Cc1nc(COC(=O)N(C)C)sc1-c1cccc(-c2ccc(C(=O)O)cc2)n1 [Example 64],0.91
15,Cc1nc(COc2ccc(F)cn2)sc1-c1cccc(-c2ccc(C(=O)O)c(O)c2)n1 [Example 26],0.43
16,Cc1nc(COc2ncccn2)sc1-c1cccc(-c2ccc(C(=O)N[C@@H](C(=O)O)c3ccccc3)cc2)n1 [Example 36],2.7
17,Cc1nc(C)c(-c2cccc(-c3ccc(C(=O)O)cc3)c2)s1 [Example 326],6.4
18,Cc1nc(Cc2ccccc2F)sc1-c1cccc(-c2ccc(C(=O)O)c(O)c2)c1 [Example 104],1.5
19,Cc1ccc(C#N)c(OCCc2ccn(-c3cccc(-c4ccc(C(=O)O)c(O)c4)c3)n2)n1 [Example 311],21
20,Cc1nc(C)c(-c2ccc(C#N)c(-c3ccc(C(=O)O)c(O)c3)c2)s1 [Example 294],44
21,Cc1nc(COc2ncccn2)sc1-c1cccc(-c2ccc3c(C(=O)O)c[nH]c3c2)n1 [Example 334],1.7
22,Cc1nc(CN2CCOCC2)sc1-c1cccc(-c2ccc(C(=O)O)c(O)c2)c1 [Example 296],3.7

row,SMILES,IC50 [µM]
1,Cc1nc(COc2ccc(F)cn2)sc1-c1ccn(-c2ccc(C(=O)O)c(O)c2)n1 [Example 21],0.29
2,O=C(O)c1ccc(-c2cccc(N3CCC(COc4ncccn4)CC3)n2)cc1 [Example 24],> 25
3,Cc1nc(COCC2CCCCO2)sc1-c1cccc(-c2ccc(C(=O)O)cc2)c1 (stereo not drawn) [Example 45],1.4
4,Cc1nc(OCC2CCCCO2)sc1-c1cccc(-c2ccc(C(=O)O)cc2)n1 (stereo not drawn) [Example 41],19
5,Cc1nc(C)c(-c2csc(-c3ccc(C(=O)O)cc3)n2)s1 [Example 291],3.3
6,COC(=O)NCc1ccc(-c2csc(-c3cc(O)c(C(=O)O)cc3F)n2)cn1 [Example 187],1.7
7,Cc1nc(CN2CCCCC2)sc1-c1cccc(-c2ccc(C(=O)O)c(O)c2)c1 [Example 298],5
8,COC(=O)NCc1nc(C)c(-c2csc(-c3ccc(C(=O)NS(=O)(=O)c4cccc(OCC(=O)O)c4)cc3)n2)s1 [Example 331],> 25
9,Cc1nc(C)c(-c2ccn(-c3ccc(C(=O)O)c(O)c3)n2)s1 [Example 288],3.8
10,Cc1nc(CC(F)(F)F)sc1-c1cccc(-c2ccc(C(=O)O)c(O)c2)c1 [Example 292],5.8
11,Cc1nc(CC2CCCCC2)sc1-c1cccc(-c2ccc(C(=O)O)c(O)c2)c1 [Example 313],9.1
12,Cc1nc(COc2ncccn2)sc1-c1cccc(-c2ccc(C(=O)NCC(=O)N3CCC(C(=O)O)C3)cc2)n1 (stereo not drawn) [Example 91],> 25
13,Cc1nc(Cn2cc(C(F)(F)F)cn2)sc1-c1cccc(-c2ccc(C(=O)O)cc2)n1 [Example 60],0.76
14,Cc1nc(C)c(-c2cccc(-c3ccc(C(=O)O)cc3)c2F)s1 [Example 297],28
15,Cc1nc(C)c(-c2ccc(=O)n(-c3ccc(C(=O)O)c(O)c3)c2)s1 [Example 319],> 250
16,Cc1nc(C)c(/C=C/c2ccc(C(=O)O)c(O)c2)s1 [Example 333],11
17,Cc1nc(Cc2ccccc2C(F)(F)F)sc1-c1cccc(-c2ccc(C(=O)O)c(O)c2)c1 [Example 320],7
18,Cc1nc(C)c(-c2nc(-c3cc(O)c(C(=O)O)cc3F)sc2C)s1 [Example 241],21
19,Cc1nc(CNC(=O)C(C)(C)C)sc1-c1cccc(-c2ccc(C(=O)O)cc2)n1 [Example 62],1.8
20,Cc1nc(Cn2ccccc2=O)sc1-c1cccc(-c2ccc(C(=O)O)c(O)c2)c1 [Example 290],2.2
21,Cc1nc(CNC(=O)C(C)(C)C)sc1-c1cccc(-c2cc(O)c(C(=O)O)cc2F)n1 [Example 150],0.5
22,Cc1nc(COc2ncccn2)sc1-c1nc(-c2ccc(C(=O)O)cc2)cs1 [Example 34],0.34

row,SMILES,IC50 [µM]
1,Cc1nc(COC2CCOC2)sc1-c1cccc(-c2ccc(C(=O)O)cc2)c1 (stereo not drawn) [Example 44],1.9
2,CCc1nc(C)c(-c2cccc(-c3ccc(C(=O)O)c(O)c3)c2)s1 [Example 323],1.6
3,Cc1nc(COCC2CCCO2)sc1-c1cccc(-c2ccc(C(=O)O)cc2)c1 (stereo not drawn) [Example 46],1.2
4,Cc1nc(C(C)C)sc1-c1cccc(-c2ccc(C(=O)O)c(O)c2)c1 [Example 324],2.3
5,Cc1nc(COc2ncccn2)sc1-c1cccc(-c2ccc(C(=O)NC(CC(=O)O)c3ccccc3)cc2)n1 (stereo not drawn) [Example 35],2.6
6,Cc1nc(CCC(N)=O)sc1-c1cccc(-c2ccc(C(=O)O)c(O)c2)c1 [Example 265],7.8
7,Cc1nc(COc2ccccn2)sc1-c1cccc(-c2ccc(C(=O)O)nc2)c1 [Example 58],> 25
8,Cc1ccc(C#N)c(OCC(=O)N/N=C/c2cccc(-c3cc(O)c(C(=O)O)cc3F)c2)n1 [Example 332],0.45
9,Cc1nc(CNCC(C)(C)C)sc1-c1cccc(-c2ccc(C(=O)O)cc2)c1 [Example 42],> 25
10,Cc1nc(COc2ncccn2)sc1-c1cccc(-c2cc(C(=O)O)co2)n1 [Example 39],18
11,Cc1nc(COc2ccc(C(F)(F)F)nn2)sc1-c1cccc(-c2ccc(C(=O)O)cc2)n1 [Example 48],1.9
12,Cc1nc(C)c(C2CCCN(c3ccc(C(=O)O)c(O)c3)C2)s1 (stereo not drawn) [Example 122],> 250
13,Cc1nc(COc2cnn(C(C)(C)C)c2)sc1-c1cccc(-c2ccc(C(=O)O)cc2)n1 [Example 59],0.97
14,Cc1nc(C)c(-c2cc(-c3ccc(C(=O)O)c(O)c3)ccn2)s1 [Example 293],9.3
15,Cc1cc(C(=O)O)cc(C)c1-c1cccc(-c2sc(COc3ncccn3)nc2C)n1 [Example 31],> 25
16,Cc1nc(CCc2ccccc2)sc1-c1cccc(-c2ccc(C(=O)O)c(O)c2)c1 [Example 109],8.1
17,Cc1nc(Cc2ccc(C(F)(F)F)cc2)sc1-c1cccc(-c2ccc(C(=O)O)c(O)c2)c1 [Example 312],6.6
18,Cc1ccc(C#N)c(OCC(=O)N2CCC(c3cccc(-c4ccc(C(=O)O)c(O)c4)c3)C2)n1 (stereo not drawn) [Example 328],45
19,CN(C)C(=O)OCC1CCN(c2cccc(-c3ccc(C(=O)O)cc3)n2)CC1 [Example 25],> 25
20,Cc1ccc(C#N)c(OCC(=O)N2CC(c3cccc(-c4ccc(C(=O)O)cc4)c3)C2)n1 [Example 322],> 250

# Target: human Bisphosphoglycerate mutase (hBPGM) (Homo sapiens (Human), UniProt P07738)
# Sequence (P07738 whole entry): as the sequence (P07738 whole entry, looked up) above
# Experiment: BPGM Phosphatase Assay
# Type: biochemical
# Conditions: Table 6 additional results; read-out: huBPGM: phosphatase Enzyme EC50
# Description: Solutions of the test compounds were then added to the plate and the DMSO content was normalized across the plate. The plate was incubated at RT for 15 min. Next, the substrate 2,3-BPG (5 μL) was added to all the wells, and the plate was sealed and incubated for 24 hr at RT. After incubation, BIOMOL green dye (40 μL) was added to all the wells, the plate was shaken to mix, and the plate was incubated at RT for 20-30 min.
row,SMILES,EC50 [µM]
1,Cc1nc(Cn2cccc(C#N)c2=O)sc1-c1cccc(-c2ccc(C(=O)O)c(O)c2)c1 [Example 100],0.42
2,Cc1nc(COc2ncccn2)sc1-c1cccc(-c2c[nH]c(C(=O)O)c2)n1 [Example 76],> 25
3,Cc1nc(CNC(=O)c2ccccn2)sc1-c1csc(-c2cc(O)c(C(=O)O)cc2F)n1 [Example 200],0.27
4,COC(=O)NCc1nc(C)c(-c2csc(-c3ccc(C(=O)O)c(O)c3)c2)s1 [Example 166],0.07
5,Cc1nc(Cc2ccn(C)n2)sc1-c1csc(-c2cc(O)c(C(=O)O)cc2F)n1 [Example 160],0.13
6,Cc1nc(C)c(-c2csc(-c3ccc(C(=O)O)c(O)c3F)n2)s1 [Example 240],2.5
7,Cc1nc(COc2cccnn2)sc1-c1csc(-c2cc(O)c(C(=O)O)cc2F)n1 [Example 131],0.04
8,Cc1nc(CNc2ccn(C)n2)sc1-c1csc(-c2cc(O)c(C(=O)O)cc2F)n1 [Example 221],0.035

# Reference: US20230348450A1, “CARBOXYLIC ACID-CONTAINING COMPOUNDS AS MODULATORS OF BIS-PHOSPHOGLYCERATE MUTASE FOR THE TREATMENT OF SICKLE CELL DISEASE” (Genzyme Corporation, priority 2020, published 2023)
